Reference: paper PMC4104029, “Mechanism of Action of Compound-13: An α1-Selective Small Molecule Activator of AMPK” (Chemistry & Biology, 2014)

Tests used:
[1] = test system: AMPK-KO (AMPKα1−/− -α2−/−) hepatocytes; assay: Lipid synthesis, [1-14C]acetate incorporation; type: cell-based, mouse
Method: Figure 5 C13 Inhibits Lipid Synthesis and Fatty Acid Esterification in Mouse Hepatocytes in an AMPK-Dependent Manner (A) Mouse hepatocytes were treated with the indicated concentrations of C13 and labeled with [1-^14C]acetate for 3 hr. A769662 (100 μM) and AICAR (0.5 mM) were included as positive controls. Rates of fatty acid and sterol synthesis were estimated by incorporation into saponifiable and nonsaponifiable lipids. Results are expressed as the mean acetate incorporated in micromoles per gram-hour ± SD and are representative of two independent experiments. […] Incorporation into triglyceride was determined as described in Experimental Procedures and results are expressed as palmitate incorporated in micromoles per gram-hour ± SD and are representative of three independent experiments. […] Results are expressed as percentage WT vehicle and represent the mean ± SD for three independent experiments. […]
(§1) Lipid synthesis was determined by labeling adherent cultures of primary hepatocytes with [1-^14C]acetate. […] Lipogenesis in hepatocytes from AMPKβ1/β2-KO mice was determined in media containing [^3H]acetate (0.2 mCi⋅mmol^−1). After 4 hr labeling, total lipids were extracted using the method of [Bligh and Dyer (1959)], and incorporated [^3H] was determined by scintillation counting. The results are expressed as micromoles acetate incorporated per gram-hour.

[2] = test system: primary mouse hepatocytes; assay: Fatty acid esterification, [3H]palmitic acid incorporation into triglycerides; type: cell-based; settings: 30 min treatment, then 60 min labeling
Method: Figure 5 C13 Inhibits Lipid Synthesis and Fatty Acid Esterification in Mouse Hepatocytes in an AMPK-Dependent Manner (A) Mouse hepatocytes were treated with the indicated concentrations of C13 and labeled with [1-^14C]acetate for 3 hr. A769662 (100 μM) and AICAR (0.5 mM) were included as positive controls. Rates of fatty acid and sterol synthesis were estimated by incorporation into saponifiable and nonsaponifiable lipids. Results are expressed as the mean acetate incorporated in micromoles per gram-hour ± SD and are representative of two independent experiments. (B) Mouse hepatocytes were treated with the indicated compounds for 30 min and labeled with media containing 0.5 mM palmitic acid (1 mCi⋅mmol^−1 [9,10-^3H]palmitic acid) for an additional 60 min. Incorporation into triglyceride was determined as described in Experimental Procedures and results are expressed as palmitate incorporated in micromoles per gram-hour ± SD and are representative of three independent experiments. […] Results are expressed as percentage WT vehicle and represent the mean ± SD for three independent experiments. […]
Fatty acid esterification was determined by labeling primary hepatocytes with [9,10-^3H(N)]palmitate. […] Lipids were stained with iodine vapor and triglyceride eluted from TLC scrapings with 1:1 ethanol:Triton X-100, and the incorporation of [^3H] was determined by scintillation counting.

[3] = test system: α1-KO hepatocytes; assay: Lipid synthesis, [1-14C]acetate incorporation; type: cell-based, mouse; settings: 1 μM
Method: Figure 6 C13 Is Relatively Selective for α1 Complexes in Primary Hepatocytes (A) Hepatocytes from WT, AMPKα1^−/−, and AMPKα2^−/− mice were treated with the indicated concentrations of C13 and labeled with [1-^14C]acetate for 3 hr. Rates of fatty acid and sterol synthesis were estimated from incorporation into saponifiable (upper graphs) and nonsaponifiable (lower graphs) lipids. Results are expressed as percentage WT vehicle and represent the mean ± SD for three independent experiments. (B) Mouse hepatocytes were incubated with the indicated concentrations of C13 for 3 hr, and lysates were analyzed using western blotting with the indicated antibodies.
as §1, with “[1-^14C]acetate. After overnight culture, hepatocytes (5 × 10^5) were washed with warm PBS and allowed to rest for 3 hr in fresh M199. Cells were treated with vehicle (0.1% DMSO) or the indicated compounds and labeled with 1 mCi⋅mmol^−1 [1-^14C]acetate for 3 hr.” for “[1-^14C]acetate.”

With `CC(C)C(=O)OCOP(=O)(OCOC(=O)C(C)C)c1ccc(C2=NOC(=O)C2)o1` [Compound C13] the anti-lipogenic effect [1] was “resistant”, the impairment of lipogenesis ([1]; highest concentrations of C13) was “≈ 20%” and the fatty acid esterification [2] was “inhibited”. The “effect on synthesis of saponifiable and nonsaponifiable lipids” value [3] was “no effect”.
